*1 amine or outer side, *2 acyl side, *3 side chain or, on linkers, in order; H or OH if unused. Where a SMILES comes first, the peptide text is derived from it. Bridges are numbered along the chain shown (N, C = ends). [ ]: non-standard residue; d: D form. The star is where a group is joined. ξ: configuration not given here. Thr(3ξ) = CC(O)[C@H](N)C(=O)O; NH(2-ClPh) = Clc1ccccc1N*; X1 = CC[C@H](C)CCCCC(=O)*; dDab = NCC[C@@H](N)C(=O)O; Dab = NCC[C@H](N)C(=O)O; CO = O=C([*:1])[*:2]; ξDab = NCCC(N)C(=O)O
Columns and labels:
A. baum = assay: MIC50 and MIC90, CLSI broth microdilution, panel of Gram negative strains; format: cell-based, Acinetobacter baumannii; parameters: key: A: a measured MIC value equal to that of polymyxin B; a measured MIC value less than the corresponding MIC value measured for polymyxin B; a measured MIC value greater than the corresponding MIC value measured for polymyxin B; conditions: relative to polymyxin B; some strains multi-drug resistant
Method: (§1) MIC testing can be performed according to Clinical and Laboratory Standards Institute (CLSI) M7-A7 (2006) broth microdilution methods. Unless otherwise indicated, MIC values are provided in units of micrograms per milliliter.
(§2) One day prior to testing, individual colonies were isolated by streaking onto rich, non-selective Tryptic Soy agar with 5% lysed sheeps blood (TSAB) with incubation at 35-37° C. for 18-24 hours.
(§3) Cultures were prepared by touching 3-5 colonies into 3 mL of cation-adjusted Mueller Hinton Broth (caMHB) in a 14-mL tube (caMHB was prepared and sterilized according to manufacturer's specifications).
(§4) OD600 of growing cultures was measured and adjusted to approximately 10^5 colony forming units per mL (CFU/mL) in caMHB for MIC inoculation (approximately OD600 0.001).
(§5) Diluted cultures were used to inoculate 50 μL per well in broth microdilution assays (final volume 100 μl per well; compounds were prepared in two-fold dilutions).
(§6) Plates were incubated 16-20 hours at 37° C., with shaking at 200 rpm.
(§7) OD600 was determined for all wells. Growth was defined as OD600>0.1. MICs were defined as the lowest concentration producing no visible turbidity (OD600<0.1).

K. pneumoniae = assay: MIC50/90 against small panels (n = 35); format: cell-based, Klebsiella pneumoniae; parameters: key: A: a MIC value measurement that is the same as that observed for polymyxin B; a MIC value measured that is lower than the comparable value observed for polymxin B; a MIC value measured that is higher than the comparable value observed for polymyxin B; conditions: small panel n = 35, relative to polymyxin B
Method: (§8) Antibacterial potency can be assessed by broth microdilution according to CLSI guidelines, plates can be incubated at 37° C., and aeration (rotation at 200 rpm) can be employed. In some assays, surfactant (Survanta, Abbott Laboratories) can be added to give a final concentration of 1, 10 and 40% in caMHB. Native polymyxin A, polymyxin B and the comparator compound of Formula II (polymyxin B decapeptide with an o-chlorophenyl urea tail) were included for comparison.

K. pneu = assay: MIC50 and MIC90, CLSI broth microdilution, panel of Gram negative strains; format: cell-based, Klebsiella pneumoniae; parameters: key: A: a measured MIC value equal to that of polymyxin B; a measured MIC value less than the corresponding MIC value measured for polymyxin B; a measured MIC value greater than the corresponding MIC value measured for polymyxin B; conditions: relative to polymyxin B; some strains multi-drug resistant
Method: as §1, §2, §3, §4, §5, §6, §7

P. aeru = assay: as above; format: cell-based, Pseudomonas aeruginosa; parameters: key: A: a measured MIC value equal to that of polymyxin B; a measured MIC value less than the corresponding MIC value measured for polymyxin B; a measured MIC value greater than the corresponding MIC value measured for polymyxin B; conditions: relative to polymyxin B, some strains multi-drug resistant
Method: as §1, §2, §3, §4, §5, §6, §7

A. baumannii 1570 = assay: MIC against the primary screening panel (broth microdilution); format: cell-based, Acinetobacter baumannii; parameters: key: A: a MIC value measurement that is the same as that observed for polymyxin B; a MIC value measured that is lower than the comparable value observed for polymxin B; a MIC value measured that is higher than the comparable value observed for polymyxin B; conditions: relative to polymyxin B
Method: as §8

A. baumannii = assay: MIC50/90 against small panels (n = 35); format: cell-based, Acinetobacter baumannii; parameters: key: A: a MIC value measurement that is the same as that observed for polymyxin B; a MIC value measured that is lower than the comparable value observed for polymxin B; a MIC value measured that is higher than the comparable value observed for polymyxin B; conditions: small panel n = 35, relative to polymyxin B
Method: as §8

E. coli [1] = assay: MIC50/90 against small panels (n = 35); format: cell-based, Escherichia coli; parameters: key: A: a MIC value measurement that is the same as that observed for polymyxin B; a MIC value measured that is lower than the comparable value observed for polymxin B; a MIC value measured that is higher than the comparable value observed for polymyxin B; conditions: small panel n = 35, relative to polymyxin B
Method: as §8

P. aeruginosa #44 [2] = assay: MICs for P. aeruginosa #44 in the presence of surfactant; format: cell-based, Pseudomonas aeruginosa; parameters: key: A: a MIC value measurement that is the same as that observed for polymyxin B; a MIC value measured that is lower than the comparable value observed for polymxin B; a MIC value measured that is higher than the comparable value observed for polymyxin B; conditions: relative to polymyxin B
Method: as §8

K. pneumoniae 933 = assay: MIC against the primary screening panel (broth microdilution); format: cell-based, Klebsiella pneumoniae; parameters: key: A: a MIC value measurement that is the same as that observed for polymyxin B; a MIC value measured that is lower than the comparable value observed for polymxin B; a MIC value measured that is higher than the comparable value observed for polymyxin B; conditions: relative to polymyxin B
Method: as §8

P. aeruginosa = assay: MIC50/90 against small panels (n = 35); format: cell-based, Pseudomonas aeruginosa; parameters: key: A: a MIC value measurement that is the same as that observed for polymyxin B; a MIC value measured that is lower than the comparable value observed for polymxin B; a MIC value measured that is higher than the comparable value observed for polymyxin B; conditions: small panel n = 35, relative to polymyxin B
Method: as §8

P. aeruginosa 44 [3] = assay: Neutropenic mouse lung infection model; format: in vivo; conditions: for Lungs cleared within one log10 of limit of detection: 8 through 20 mg/kg dose levels
Method: Compound of Formula (Ia) was tested in a murine thigh model. For the thigh model, female CD-1 mice were rendered neutropenic by IP injection on days −4 and −1 with 150 and 100 mg/kg cyclophosphamide, respectively. On day 0 mice were infected with 1×10^7 colony-forming units (cfu) of A. baumannii 1570 in one thigh muscle, and then administered compound SC in a dose ranging from 2 to 12 mg/kg at 1 and 6 hours post-infection.
The mouse lung model was run in the same manner as the thigh infection model, except that mice were infected IN with 1×10^7 cfu of P. aeruginosa 44 on day 0. Doses administered in the lung study ranged from 8 to 20 mg/kg. The ED−3log10 was based on cfu determination from the lung tissue 24 hours post-infection.

P. aeruginosa 44 [4] = assay: MIC against the primary screening panel (broth microdilution); format: cell-based, Pseudomonas aeruginosa; parameters: key: A: a MIC value measurement that is the same as that observed for polymyxin B; a MIC value measured that is lower than the comparable value observed for polymxin B; a MIC value measured that is higher than the comparable value observed for polymyxin B; conditions: relative to polymyxin B
Method: as §8

E. coli 1527 = assay: as above; format: cell-based, Escherichia coli; parameters: key: A: a MIC value measurement that is the same as that observed for polymyxin B; a MIC value measured that is lower than the comparable value observed for polymxin B; a MIC value measured that is higher than the comparable value observed for polymyxin B; conditions: relative to polymyxin B
Method: as §8

E. coli [5] = assay: MIC50 and MIC90, CLSI broth microdilution, panel of Gram negative strains; format: cell-based, Escherichia coli; parameters: key: A: a measured MIC value equal to that of polymyxin B; a measured MIC value less than the corresponding MIC value measured for polymyxin B; a measured MIC value greater than the corresponding MIC value measured for polymyxin B; conditions: relative to polymyxin B; some strains multi-drug resistant
Method: as §1, §2, §3, §4, §5, §6, §7

[6] = Acute toxicity testing in rats; format: in vivo, Sprague-Dawley rat; conditions: 1 mg/kg i.v., female Sprague-Dawley rat
Method: One female Sprague-Dawley rat was administered a 1 mg/kg dose of the test Compound 5. Clinical observations were taken immediately following the administration of compound and at 0.5, 1, 2 and 4 hours post-dose.

P. aeruginosa #44 [7] = assay: MIC against P. aeruginosa #44 in polystyrene plate; format: cell-based, Pseudomonas aeruginosa; conditions: range of repeated tests
Method: P. aeruginosa #44 were grown in cation adjusted Mueller Hinton Broth (caMHB) (catalog#B12322; Fisher Scientific, Pittsburgh, Pa.) at 37° C. MIC testing was performed according to Clinical and Laboratory Standards Institute [CLSI, formerly National Committee for Clinical Laboratory Standards (NCCLS), Wayne, Pa.] guidelines for broth microdilution. […]

## CC(C)C[C@@H]1NC(=O)[C@@H](Cc2ccccc2)NC(=O)[C@H](CCN)NC(=O)C(NC(=O)[C@H](CCN)NC(=O)[C@@H](NC(=O)[C@H](CCN)NC(=O)Nc2ccccc2Cl)C(C)O)CCNC(=O)[C@H](C(C)O)NC(=O)[C@H](CCN)NC(=O)C(CCN)NC1=O (stereo partly shown) [Formula (II) comparator] ({NH(2-ClPh)-CO}-[Dab][Thr(3ξ)][Dab][ξDab][Dab][dF]L[ξDab][Dab][Thr(3ξ)]; lactam 4-C)
A. baum
  A. baum MIC 50: C
  A. baum MIC 90: C
K. pneumoniae
  K. pneumoniae MIC50: C
  K. pneumoniae MIC90: C
K. pneu
  K. pneu MIC 50: C
  K. pneu MIC 90: C
P. aeru; listed as 2
  P. aeru MIC 50: B and A
  P. aeru MIC 90: A and C
A. baumannii 1570
  MIC A. baumannii 1570: C
A. baumannii
  A. baumannii MIC50: C
  A. baumannii MIC90: C
E. coli [1]
  E. coli MIC50: C
  E. coli MIC90: C
P. aeruginosa #44 [2]
  MIC P. aeruginosa #44, 0% surfactant: C
  MIC P. aeruginosa #44, 10% surfactant: B
  MIC P. aeruginosa #44, 40% surfactant: A
K. pneumoniae 933
  MIC K. pneumoniae 933: C
P. aeruginosa
  P. aeruginosa MIC50: B
  P. aeruginosa MIC90: A
P. aeruginosa 44 [3]
  Lungs cleared within one log10 of limit of detection: not seen
P. aeruginosa 44 [3]; historical data
  ED−3log10: approximately 12 mg/kg
P. aeruginosa 44 [4]
  MIC P. aeruginosa 44: C
E. coli 1527
  MIC E. coli 1527: C
E. coli [5]
  E. coli MIC50: C
  E. coli MIC90: C

## CC[C@H](C)CCCCC(=O)N[C@@H](CCN)C(=O)N[C@H](C(=O)N[C@H](CCN)C(=O)N[C@H]1CCNC(=O)[C@H]([C@@H](C)O)NC(=O)[C@H](CCN)NC(=O)[C@H](CCN)NC(=O)[C@H]([C@@H](C)O)NC(=O)[C@@H](CC(C)C)NC(=O)[C@H](CCN)NC1=O)[C@@H](C)O [Native Polymyxin A, Polymyxin A] (X1-[Dab]T[dDab][Dab][Dab][dL]T[Dab][Dab]T; lactam 4-C)
A. baum
  A. baum MIC 50: A
  A. baum MIC 90: A
[6]
  Acute (anaphylactoid) observations: no clinical signs were observed
K. pneumoniae
  K. pneumoniae MIC50: C
  K. pneumoniae MIC90: C
K. pneu
  K. pneu MIC 50: C
  K. pneu MIC 90: C
P. aeru
  P. aeru MIC 50: A
  P. aeru MIC 90: C
A. baumannii 1570
  MIC A. baumannii 1570: C
A. baumannii
  A. baumannii MIC50: A
  A. baumannii MIC90: A
E. coli [1]
  E. coli MIC50: B
  E. coli MIC90: A
P. aeruginosa #44 [2]
  MIC P. aeruginosa #44, 0% surfactant: C
  MIC P. aeruginosa #44, 10% surfactant: B
  MIC P. aeruginosa #44, 40% surfactant: B
K. pneumoniae 933
  MIC K. pneumoniae 933: A
P. aeruginosa
  P. aeruginosa MIC50: A
  P. aeruginosa MIC90: C
P. aeruginosa 44 [3]
  Lungs cleared within one log10 of limit of detection: not observed
P. aeruginosa 44 [3]; neutropenic mouse lung, P. aeruginosa 44, SC, BID×1 d, cfu 24 hours post-infection
  ED−3log10: 16.22 mg/kg
P. aeruginosa 44 [4]
  MIC P. aeruginosa 44: C
E. coli 1527
  MIC E. coli 1527: B
E. coli [5]
  E. coli MIC50: B
  E. coli MIC90: A

## Colistin
P. aeruginosa #44 [7]
  MIC against P. aeruginosa #44 In polystyrene plate: 2-4 micrograms/ml
